The supplement of paper PMC7840683
± gives the standard deviation of the averaged measurements.

Tested on: HepaRG
Assay: LDH release cytotoxicity, % of total lysis control; higher = more cytotoxic
Conditions: 48 h
Procedure, shortened: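 Percent cytotoxicity was scaled between on-plate vehicle and total lysis controls, then averaged over duplicate wells. The cells were single-lot HepaRG on collagen I-coated 96-well plates, exposed for 48 h to eight-point half-log test chemical series topping at 100 µM in serum-free induction medium with 0.5% DMSO. Total lysis wells got 0.1% Triton X, and LDH in 50 µL spent medium was read as resorufin fluorescence (CytoTox-ONE, Tecan Safire).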

Row | Compound | LDH release cytotoxicity (0.03162 µM) [%] | LDH release cytotoxicity (0.1 µM) [%] | LDH release cytotoxicity (0.3162278 µM) [%] | LDH release cytotoxicity (1 µM) [%] | LDH release cytotoxicity (3.16228 µM) [%] | LDH release cytotoxicity (10 µM) [%] | LDH release cytotoxicity (31.6228 µM) [%] | LDH release cytotoxicity (100 µM) [%] | LDH release cytotoxicity (0.031623 µM) [%] | LDH release cytotoxicity (0.316228 µM) [%]
1 | COc1cc(S(=O)(=O)O)c(C)cc1N=Nc1c(O)ccc2cc(S(=O)(=O)O)ccc12 | -0.0925 ± 0.66 | -0.495 ± 0.4 | -0.745 ± 0.75 | -1.36 ± 1.1 | -1.42 ± 0.71 | -1.6 ± 0.25 | -1.96 ± 0.065 | -2.81 ± 0.42 |  | 
2 | COc1ccc(OC(F)(F)F)cc1CNC1CCCNC1c1ccccc1 (stereo not given) | -0.49 ± 0.062 | -0.83 ± 0.43 | -1.38 ± 0.18 | -1.02 ± 1.2 | -1.52 ± 1.2 | -0.56 ± 0.84 | 5.16 ± 0.72 | 88 ± 10 |  | 
3 | COc1cc(C=O)cc2c1C(COC(N)=O)C1(OC(C)=O)ON2CC2C1N2C(C)=O (stereo not given) | -0.71 ± 0.46 | -0.654 ± 0.1 | 1.14 ± 1.2 | 17.5 ± 1.6 | 62.9 ± 2.6 | 67.8 ± 2.4 | 73 ± 2.2 | 73.3 ± 2.3 |  | 
4 | COCCOc1cc2cc(C(=O)NC3CCN(C(C)C)CC3)n(CC(=O)Nc3ccc(Cl)cn3)c2cn1 | -0.433 ± 0.89 | -0.956 ± 0.47 | -0.802 ± 0.14 | -1.56 ± 0.7 | -0.955 ± 0.44 | -0.194 ± 0.17 | 13.4 ± 1 | 96.77 ± 0.093 |  | 
5 | CSc1ccc(Oc2ccc(S(N)(=O)=O)cc2CN(C)C)cc1C | -1.53 ± 0.56 | -2.12 ± 0.38 | -3.24 ± 1 | -3.17 ± 0.95 | -2.65 ± 0.17 | -1.44 ± 0.31 | -1.38 ± 0.35 | 13.7 ± 1.8 |  | 
6 | O=C(NC(c1ccccc1)C1CCCCN1)c1cccc(C(F)(F)F)c1Cl (stereo not given) | -1.29 ± 1.3 | -1.57 ± 0.071 | -0.0611 ± 0.068 | -1.79 ± 0.54 | -0.61 ± 1.2 | 0.734 ± 0.85 | 24.2 ± 1.3 | 86.2 ± 3.2 |  | 
7 | NC(=O)N(O)C1C=CC(Oc2cccc(Oc3ccc(F)cc3)c2)C1 (stereo not given) | -0.313 ± 0.089 | -0.862 ± 0.21 | -1.12 ± 0.51 | -0.265 ± 0.5 | -0.557 ± 0.086 | -1.09 ± 0.79 | 1.56 ± 0.69 | 19.5 ± 2.4 |  | 
8 | NC(=O)N1C(=O)C(C(=O)c2cc(Cl)cs2)c2cc(F)c(Cl)cc21 (stereo not given) | -0.6756 ± 0.0047 | -0.635 ± 1.4 | -0.381 ± 0.96 | -0.761 ± 0.069 | -0.334 ± 0.65 | 1.12 ± 0.053 | 64.6 ± 1 | 50.6 ± 8.4 |  | 
9 | NCC1(Cc2noc(=O)[nH]2)CCCCC1 | -1.45 ± 0.35 | -1.66 ± 0.47 | -1.14 ± 0.84 | -1.29 ± 0.97 | -1.26 ± 0.87 | -1.72 ± 0.14 | -2.07 ± 0.18 | 17.4 ± 1.5 |  | 
10 | COC(=O)C(C)Oc1ccc(Oc2ccc(Cl)cc2Cl)cc1 (racemic) [Methyl (RS)-2-[4-(2,4-dichlorophenoxy)phenoxy]propionate] | -0.971 ± 1.5 | -1.59 ± 0.12 | -1.59 ± 1.4 | -2.24 ± 0.54 | -1.38 ± 0.41 | -1.28 ± 0.4 | -1.8 ± 0.099 | -0.104 ± 0.18 |  | 
11 | CC(O)CN(CCN(CC(C)O)CC(C)O)CC(C)O (stereo not given) [1,1',1'',1'''-(Ethanediylnitrilo)tetrakis(2-propanol)] | -1.14 ± 0.41 | -1.86 ± 1.1 | -1.7 ± 0.17 | -2.22 ± 0.98 | -2.41 ± 0.2 | -1.35 ± 1.4 | 5.57 ± 1.1 | 18.7 ± 1.4 |  | 
12 | C[N+]1(C)CCCCC1 [1,1-Dimethylpiperidinium chloride] | -1.22 ± 0.36 | -0.187 ± 0.78 | -1.4 ± 0.52 | -1.35 ± 0.62 | 0.248 ± 0.65 | 0.722 ± 0.62 | -0.465 ± 0.11 | 0.762 ± 0.26 |  | 
13 | c1ccc2[nH]nnc2c1 [1,2,3-Benzotriazole] | -1.49 ± 0.2 | -1.03 ± 0.94 | -1.12 ± 0.52 | -1.12 ± 0.55 | -1.23 ± 0.65 | -0.765 ± 0.061 | 0.381 ± 0.99 | 1.81 ± 0.42 |  | 
14 | Clc1cccc(Cl)c1Cl [1,2,3-Trichlorobenzene] |  | -2.59 ± 0.72 |  | -2.67 ± 0.31 | -3.67 ± 0.82 | -2.75 ± 0.99 | -2 ± 0.85 | -0.185 ± 0.67 | -0.151 ± 0.71 | -3.02 ± 0.044
15 | ClCC(Cl)CCl [1,2,3-Trichloropropane] | -1.72 ± 1.1 | -1.57 ± 0.41 | -1.6 ± 0.79 | -0.683 ± 0.4 | -0.233 ± 1.1 | -1.91 ± 0.066 | -1.01 ± 0.093 | 0.236 ± 0.36 |  | 
